What follows are compounds tested against IRAK4 (Homo sapiens (Human), UniProt Q9NWZ3) (assay: IRAK4 kinase activity, IMAP fluorescence polarization assay). Conditions: unit inferred; 100 μM ATP; read-out: IRAK4 IC50.
Assay type: biochemical
Procedure, shortened: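 Fluorescence polarization (IMAP nanoparticle binding of phosphopeptide) reports activity after a 30 min, 25 °C reaction. Conditions: 100 μM ATP, 0.5 nM GST-IRAK4, 100 nM fluorescent peptide, 10 mM Tris pH 7.2, 1 mM MgCl2, 1 mM DTT, 0.01% Tween 20.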

Chain of IRAK4 (Q9NWZ3 whole entry): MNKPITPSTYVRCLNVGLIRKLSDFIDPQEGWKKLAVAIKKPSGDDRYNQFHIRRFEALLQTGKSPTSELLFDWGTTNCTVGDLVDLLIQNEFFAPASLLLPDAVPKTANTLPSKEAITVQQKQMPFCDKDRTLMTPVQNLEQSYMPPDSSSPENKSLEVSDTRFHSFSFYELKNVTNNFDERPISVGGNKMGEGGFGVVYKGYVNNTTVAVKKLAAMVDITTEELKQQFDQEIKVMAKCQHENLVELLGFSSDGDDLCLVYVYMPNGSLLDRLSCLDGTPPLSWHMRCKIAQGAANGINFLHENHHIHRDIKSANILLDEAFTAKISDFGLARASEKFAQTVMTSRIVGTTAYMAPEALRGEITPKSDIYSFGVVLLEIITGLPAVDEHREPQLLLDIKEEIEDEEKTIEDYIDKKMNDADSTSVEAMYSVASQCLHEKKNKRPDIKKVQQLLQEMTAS

Row | SMILES | IC50 [µM]
1 | O=c1[nH]c(N2CCN(c3cccnc3)CC2)nc(N[C@@H]2C[C@H](CO)[C@@H](O)[C@H]2O)c1-c1nc2ccccc2s1 [Example 63, 5-(benzo[d]thiazol-2-yl)-6-((1R,2S,3R,4R)-2,3-dihydroxy-4-(hydroxymethyl)cyclopentylamino)-2-(4-(pyridin-3-yl)piperazin-1-yl)pyrimidin-4(3H)-one] | 0.0037
2 | O=c1[nH]c(N2CCC(c3cncnc3)CC2)nc(N[C@@H]2C[C@H](CO)[C@@H](O)[C@H]2O)c1-c1nc2ccccc2s1 [Example 64, 5-(benzo[d]thiazol-2-yl)-6-((1R,2S,3R,4R)-2,3-dihydroxy-4-(hydroxymethyl)cyclopentylamino)-2-(4-(pyrimidin-5-yl)piperidin-1-yl)pyrimidin-4(3H)-one] | 0.0062
3 | O=c1[nH]c(N2CCc3ccncc3C2)nc(N[C@@H]2C[C@H](CO)[C@@H](O)[C@H]2O)c1-c1nc2ccccc2s1 [Example 65, 5-(benzo[d]thiazol-2-yl)-2-(3,4-dihydro-2,7-naphthyridin-2(1H)-yl)-6-((1R,2S,3R,4R)-2,3-dihydroxy-4-(hydroxymethyl)cyclopentylamino)pyrimidin-4(3H)-one] | 0.0072
4 | CN1CCC2(CCN(c3nc(N[C@@H]4C[C@H](CO)[C@@H](O)[C@H]4O)c(-c4nc5ccccc5s4)c(=O)[nH]3)CC2)C1=O [Example 66, 8-(5-(benzo[d]thiazol-2-yl)-4-((1R,2S,3R,4R)-2,3-dihydroxy-4-(hydroxymethyl)cyclopentylamino)-6-oxo-1,6-dihydropyrimidin-2-yl)-2-methyl-2,8-diazaspiro[4.5]decan-1-one] | 0.0088

More lines, now with the values ahead:

Row | IC50 [µM] | SMILES
5 | 0.0118 | O=c1[nH]c(N2CCC(n3ccnn3)CC2)nc(N[C@@H]2C[C@H](CO)[C@@H](O)[C@H]2O)c1-c1nc2ccccc2s1 [Example 67, 2-(4-(1H-1,2,3-triazol-1-yl)piperidin-1-yl)-5-(benzo[d]thiazol-2-yl)-6-((1R,2S,3R,4R)-2,3-dihydroxy-4-(hydroxymethyl)cyclopentylamino)pyrimidin-4(3H)-one]
6 | 0.0121 | O=c1[nH]c(N2CCN(c3ccccn3)CC2)nc(N[C@@H]2C[C@H](CO)[C@@H](O)[C@H]2O)c1-c1nc2ccccc2s1 [Example 68, 5-(benzo[d]thiazol-2-yl)-6-((1R,2S,3R,4R)-2,3-dihydroxy-4-(hydroxymethyl)cyclopentylamino)-2-(4-(pyridin-2-yl)piperazin-1-yl)pyrimidin-4(3H)-one]
7 | 0.0125 | O=c1[nH]c(N2CCC(c3cnccn3)CC2)nc(N[C@@H]2C[C@H](CO)[C@@H](O)[C@H]2O)c1-c1nc2ccccc2s1 [Example 69, 5-(benzo[d]thiazol-2-yl)-6-((1R,2S,3R,4R)-2,3-dihydroxy-4-(hydroxymethyl)cyclopentylamino)-2-(4-(pyrazin-2-yl)piperidin-1-yl)pyrimidin-4(3H)-one]
8 | 0.0133 | O=c1[nH]c(N2CCC(c3cccnc3)CC2)nc(N[C@@H]2C[C@H](CO)[C@@H](O)[C@H]2O)c1-c1nc2ccccc2s1 [Example 70, 5-(benzo[d]thiazol-2-yl)-6-((1R,2S,3R,4R)-2,3-dihydroxy-4-(hydroxymethyl)cyclopentylamino)-2-(4-(pyridin-3-yl)piperidin-1-yl)pyrimidin-4(3H)-one]
9 | 0.0179 | CS(=O)(=O)C1CN(c2nc(N[C@@H]3C[C@H](CO)[C@@H](O)[C@H]3O)c(-c3nc4ccccc4s3)c(=O)[nH]2)C1 [Example 71, 5-(benzo[d]thiazol-2-yl)-6-((1R,2S,3R,4R)-2,3-dihydroxy-4-(hydroxymethyl)cyclopentylamino)-2-(3-(methylsulfonyl)azetidin-1-yl)pyrimidin-4(3H)-one]
10 | 0.019 | O=c1[nH]c(N2CCC(c3ccncc3)CC2)nc(N[C@@H]2C[C@H](CO)[C@@H](O)[C@H]2O)c1-c1nc2ccccc2s1 [Example 72, 5-(benzo[d]thiazol-2-yl)-6-((1R,2S,3R,4R)-2,3-dihydroxy-4-(hydroxymethyl)cyclopentylamino)-2-(4-(pyridin-4-yl)piperidin-1-yl)pyrimidin-4(3H)-one]

Source: patent US9221809B2 (MERCK SHARP & DOHME CORP., priority 2011, dated 2015)
